Experiments:
[1] = target: T1, PKCα (Homo sapiens, UniProt P17252); experiment: PMA mediated PKCα sub-cellular translocation, measured by kinase activity after photocleavable antibody isolation; assay type: cell-based; settings: cultured HeLa cells, 200 nM PMA for 5 min, detergent fractionated; based on kinase activity of isolated PKCα; n=4
T1 construct: isolate and photo-release endogenous PKCa from the undiluted detergent fractionated HeLa cell extracts; endogenous in cells; host or cells: HeLa (ATCC)
Method: FIG. 20. Phorbol ester (PMA) mediated protein kinase Cα (PKCα) sub-cellular translocation as measured by functional activity following isolation with photocleavable antibodies. Cultured HeLa cells were stimulated with 200 nM PMA for 5 min and detergent fractionated into the cytosol and membrane compartments prior to isolation and purification with the photocleavable antibodies.
Cultured HeLa cells (ATCC; Manassas, Va.) were stimulated for 5 min with 200 nM Phorbol-12-Myristate-13-Acetate (PMA; EMD Biosciences, Inc., San Diego, Calif.) and subsequently detergent fractionated into sub-cellular compartments according to reported procedures [Ramsby et al. (1994) Electrophoresis 15, 265-277; Ramsby & Makowski. (1999) Methods Mol Biol 112, 53-66; Chiang et al. (2000) J Biochem Biophys Methods 46, 53-68]. PMA is a potent activator of PKCα and is well known to cause translocation of the kinase from the cytosolic to the membrane sub-cellular compartments [Ross & Joyner. (1997) Endothelium 5, 321-332; Bazan & Rapoport. (1996) JPharmacol Toxicol Methods 36, 87-95; Yazlovitskaya & Melnykovych. (1995) Cancer Lett 88, 179-183]. […]

[2] = target: T2, MDM2 (Homo sapiens, UniProt Q00987); experiment: p53-MDM interaction assay, complexes pre-formed before contact photo-transfer; assay type: binding; settings: complex formed in solution, captured on beads, contact photo-transferred
T2 construct: polyhistidine (C); made in house; host or cells: rabbit reticulocyte lysate, cell-free (MDM2)
Method: All steps were performed at +4° C. or on an ice water bath and all reagents and samples were also kept under these conditions during the procedure. […] To facilitate addition of small bead volumes to the samples, the beads were initially prepared to a 10% (v/v) bead suspension with 5 mM DTT in PBS. The samples, now 80 μL each, were then mixed with 10 μL of the 10% (v/v) bead suspension corresponding to addition of 1 μL packed bead volume. After capture on the NeutrAvidin beads for 1 hr, beads were washed by mixing 3× briefly (briefly=5 sec vortex mix) in 400 bead volumes per wash of PBS pH 7.5 and 5 mM DTT. The washing procedure was performed in batch mode using 0.45 micron pore size, PVDF membrane, micro-centrifuge Filtration Devices to facilitate manipulation of the small volumes of affinity matrix (˜100 micron beads) and exchange the buffers (Ultrafree-MC Durapore Micro-centrifuge Filtration Devices, 400 μL capacity; Millipore, Billerica, Mass.). Prior to contact photo-transfer of the captured and isolated proteins, the washed pellet of 1 μL of NeutrAvidin agarose beads was suspended in a final volume of 50 μL of 50% glycerol and 5 mM DTT in PBS thereby resulting in a 2% (v/v) bead suspension.

T2 sequence (Q00987 whole entry): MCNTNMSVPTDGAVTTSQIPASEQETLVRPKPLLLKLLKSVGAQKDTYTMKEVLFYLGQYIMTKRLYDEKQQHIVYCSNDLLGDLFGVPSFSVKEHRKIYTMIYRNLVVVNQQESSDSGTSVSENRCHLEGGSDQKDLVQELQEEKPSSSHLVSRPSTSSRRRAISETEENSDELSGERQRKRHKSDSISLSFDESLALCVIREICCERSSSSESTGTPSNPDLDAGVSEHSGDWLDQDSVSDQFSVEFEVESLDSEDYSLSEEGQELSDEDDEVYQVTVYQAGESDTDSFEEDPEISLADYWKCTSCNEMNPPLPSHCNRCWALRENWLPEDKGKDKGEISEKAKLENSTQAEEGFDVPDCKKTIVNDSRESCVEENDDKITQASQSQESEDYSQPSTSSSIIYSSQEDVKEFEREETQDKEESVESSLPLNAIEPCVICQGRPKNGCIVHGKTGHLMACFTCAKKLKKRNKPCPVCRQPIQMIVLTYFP

Compound: CCCCCCCCCCCCCC(=O)O[C@@H]1[C@@H](C)[C@@]2(O)[C@@H](C=C(CO)C[C@]3(O)C(=O)C(C)=C[C@@H]23)[C@@H]2C(C)(C)[C@]12OC(C)=O [PMA, Phorbol-12-Myristate-13-Acetate]
- PKCα distribution, cytosol [1]: 16±4%
- PKCα distribution, membrane [1]: 84±3%

Compound: p53 probe: cell-free expressed p53 labeled only with BODIPY-FL using BODIPY-FL-tRNA COMPLETE
- binding of cell-free expressed BODIPY-FL p53 probe to MDM bait [2]: selective binding

Source: US20090264298A1, “Methods for enriching subpopulations” (AMBERGEN, Inc., priority 2007, published 2009)
